Assays:
[1] = test system: tumour cell lines containing His-175 or His-273 p53 mutation; assay: Summary of activity by p53 mutation type; assay type: cell-based; conditions: for activity on p53 mutant categories (His-175, His-273): summary statement; for specificity for p53 mutation type: FIG. 6 summary
Excerpt: SIMP1M: FQQSSTARSATW (SEQ ID NO:16) (MW: 1369, PI: 9.75) peptide is a mutated version of SIMP1 peptide wherein K138 residue has been replaced by Arginine.
FIG. 6 that SIMP peptides and by-products thereof displace protein complexes involving mutated protein p53 and p73.

[2] = test system: HT29 cells; assay: In vivo tumorigenicity test (xenograft of peptide transfected HT29 cells); conditions: naked mice, s.c. 5×10^5 peptide transfected cells/mouse, 5 weeks
Protocol: In order to assay SIMP1 in vivo antitumor activity nu/nu […] mice were administered subcutaneously with SIMP1, SIMP1KO and SIMP5M transfected HT29 cells (5.0×10^5 cells/mouse). Tumour growth has been monitored over 5 weeks.
Xenograft assays have been carried out by administration to naked mice subcutaneous injections containing 5×10^5 cells/mouse of SIMP1, SIMP1KO and SIMP5M peptide transfected colon and rectum tumour human cell line (nu/nu CD1 Charles River mice). The tumour growth together with animal body weight is monitored for 5 weeks in order to estimate the chronic toxicity
The experiments have been carried out by administration to naked mouse (nu/nu CD1 Charles River mice) subcutaneous injections containing 5×10^5 cells/mouse. The tumour growth has been monitored together with animal body weight for 5 weeks in order to estimate possible not occurred chronic toxic effects (FIG. 5).

[3] = target: GST-p53 His175 (Homo sapiens, UniProt P04637, R175H); assay: Dot immunobinding test with purified GST-p53 fusion proteins; assay type: binding; conditions: 20 μg GST fusion purified proteins
Protocol: (A) Total extracts deriving from SKBR3, (His-175) HT29, (His-273) and H1299 (p53 free) tumour cells have been incubated (1 mg) on SIMP1 and SIMPIKO peptide labelled nitrocellulose membrane and Dot Blot analysed. In (B) the membranes have been incubated with 20 μg of wild type WT GST-p53 purified protein or GST-p53 His-175, GST-p53-His-175, 74-298 or GST alone. In both experiments dots have been detected by labelling the membranes with anti-p53 (DO1) antibody
Nitrocellulose membranes have been cut, washed with water and blotted on the paper filters. The peptides at 250 mM concentration have been transferred on membrane. Labelled membrane has been washed for 10 min. with TBST buffer (10 mM Tris-HCl pH 7.4, 150 mM NaCl, 0.05% (v/v) Tween-20) and then blocked for 45 min with TBST/5% milk. Then the membranes have been incubated for 6 hours at 4° C. in shaker with 1 mg of total protein extract or 20 μg of GST fusion purified proteins. Successively the membranes have been washed with TBST buffer and decorated with anti-p53 antibody (DO1) as a primary antibody. As secondary antibody horse peroxidase conjugated goat antibody has been used. Immunolabelled lanes have been detected using chemiluminescence analysis (Pierce).
The membranes decorated with SIMP peptides also have been incubated with GST-p53 His175, GST p53His74-298, GST WTp53 fusion proteins, GST control.

[4] = test system: MDA-MB468 breast and HT29 colon carcinoma cell lines; assay: Cell viability / proliferation assays after peptide transfection; assay type: cell-based, human; conditions: peptide transfected cells
Protocol: (A) In order to verify the SIMPI peptide specificity, independently from the cellular context, we tested SIMP1 peptides in some Adriamicyn treated colon carcinoma HT29 (His-273). cell lines. The cells have been transfected using a mixture containing lipofectamine, pLUC-BAX plasmid, β-galactosidase expression vector, SIMP1 and SIMP5M control peptides. 24 hours post-transfection, have been treated with 3 μM Adriamicyn. (B-C). Viability and inhibition assays have been carried out after transfection using SIMP1 and SIMP5M peptides in HT29 (colon cancer) and MDA-MB-468 (breast cancer) cell lines
Cell viability has been tested using Trypan Blue exclusion assays.
We observed a reduction of cell proliferation in MDA-MB468 breast and HT29 colon carcinoma cell lines.

[5] = test system: MDA-MB-468 cells (His-273 p53 mutation); assay: Transactivation test (pLUC-BAX, pLUC-p21) in Adriamycin treated MDA-MB-468 cells; assay type: cell-based, human; conditions: MDA-MB-468, 3 μM Adriamycin 24 hours post-transfection, luciferase reporter
Protocol: MDA-MB-468 cells have been transfected using a mixture containing lipofectamine, pLUC-BAX plasmid, β-galactosidase expression vector, SIMP1 and SIMP control peptides. The cells, 24 hours post-transfection, have been treated with 3 μM Adriamycin.
MDA-MB-468 cells have been transfected using a mixture containing lipofectamine, pLUC-BAX plasmid, pLUC-p21, β-galactosidase expression vector, SIMP1 peptides and SIMP1M and SIMP1KO derived mutant thereof. The cells, 24 hours post-transfection, have been treated with 3 μM Adriamicyn and then processed.
SKBR3, HT-29, MDA-MB-468 cell lines have been transfected with Lipofectamine 2000 according to the supplier instructions (InVitrogen).
Cells (1.5×10^5) have been transiently transfected using SIMP peptides, expression plasmids and reporter constructs as internal controls for transfection efficiency. After the transfection, SKBR3, HT-29 and MDA-MB-468 have been incubated with 3 μM ADR over 24 hours. Cells have been washed with cold PBS and re-suspended in lysis buffer (Promega) and incubated for 10 min at room temp. Insoluble material has been centrifuged and luciferase activity has been determined using a commercial kit with a luminometer (Turner).

[6] = test system: m-p53 His273 inhibition on p73 transcription activity; assay: Transactivation test with pLUC-BAX reporter in transiently transfected H1299 cells; assay type: cell-based, human; conditions: peptides 20 μM each
Protocol: (A) MDA-MB-468 (5×10^5) cells have been transfected using a lipofectamine containing mixture, βgal expression vector, which normalizes transfection efficiency, and SIMPI peptide (20 μM). Total cellular lysates (1 mg), have been immunoprecipitated with antibodies directed against p73 and immunoglobulins (IgG). Immunoprecipitates and an aliquot (50 μg) of total lysate after 12% acrylamide gel electrophoretic run have been transferred on nitrocellulose membrane and labelled with antibodies shown in the figure. (B) MDA-MB-468 cells, have been transfected using SIMP1 and SIMP5,6. peptides. Successively, cells have been washed and stimulated with 3 μM Adriamycin. Total obtained lysates (30 μg) have been assayed for the expression of PARP and BAX apoptotic proteins. Lysate has been normalized by assaying γ-tubulin expression. (C-D). Transactivation tests have been carried out by transient transfection of H1299 cells using a mixture containing lipofectamine, SIMP1, SIMP5,6 indicated plasmids (20 μM each) together with pLUC-BAX reporter vector. To each reaction mixture an equal amount of […] expression vector was added, in order to normalize the transfection efficiency. […]
To this end, we have analyzed the ability in blocking the His273 p53 induced inhibition on transcription activity. […]

[7] = target: T1, m-p53His-273/p73 complex (Homo sapiens, UniProt P04637, R273H); assay: Coprecipitation (immunoprecipitation) test of the m-p53/p73 complex in MDA-MB-468 cells; assay type: cell-based; conditions: His-273 mutation, peptide 20 μM, anti-p73 immunoprecipitation
T1 construct: Total cellular lysates (1 mg), have been immunoprecipitated with antibodies directed against p73; endogenous in cells; host or cells: MDA-MB-468
Protocol: (§1) (A) MDA-MB-468 (5×10^5) cells have been transfected using a lipofectamine containing mixture, βgal expression vector, which normalizes transfection efficiency, and SIMPI peptide (20 μM). Total cellular lysates (1 mg), have been immunoprecipitated with antibodies directed against p73 and immunoglobulins (IgG). Immunoprecipitates and an aliquot (50 μg) of total lysate after 12% acrylamide gel electrophoretic run have been transferred on nitrocellulose membrane and labelled with antibodies shown in the figure. (B) MDA-MB-468 cells, have been transfected using SIMP1 and SIMP5,6. peptides. Successively, cells have been washed and stimulated with 3 μM Adriamycin. Total obtained lysates (30 μg) have been assayed for the expression of PARP and BAX apoptotic proteins. Lysate has been normalized by assaying γ-tubulin expression. (C-D). Transactivation tests have been carried out by transient transfection of H1299 cells using a mixture containing lipofectamine, SIMP1, SIMP5,6 indicated plasmids (20 μM each) together with pLUC-BAX reporter vector. To each reaction mixture an equal amount of […] expression vector was added, in order to normalize the transfection efficiency.
The cell extracts have been processed in a lysis buffer containing 50 mm Tris HCl pH 8, 100 mM NaCl, 10% glycerol, 1% Triton X-100, 1 mM EDTA, 100 mM NaF, MgCl2, 1 mM PMSF, protease and phosphatase inhibitors. Then extracts have been sonicated and centrifuged at 14.000 rpm for 10 min for the debris removal.
50 μg of solubilised proteins have been separated by electrophoresis on 10 or 15% SDS-polyacrylamide gel. Western blot analysis has been carried out using anti-p53 primary antibodies (DO1 Calbiochem), rabbit anti-PARP, rabbit polyclonal anti-Bax, anti-p21 and anti-tubulin monoclonal antibodies (Calbiochem). […] Immunolabelled lanes have been detected using chemiluminescence analysis (Pierce). […]
In order to evaluate the activity of SIMPI peptide and SIMP1KO and SIMP1M derivatives the ability in disrupting the oncogenic m-p53His-273/p73 complex has been analysed.

[8] = test system: MDA-MB-468 cells; assay: Apoptotic tests (PARP and BAX expression, Western blot) after Adriamycin; assay type: cell-based, human; conditions: MDA-MB-468, 3 μM Adriamycin
Protocol: as §1
50 μg of solubilised proteins have been separated by electrophoresis on 10 or 15% SDS-polyacrylamide gel. Western blot analysis has been carried out using anti-p53 primary antibodies (DO1 Calbiochem), rabbit anti-PARP, rabbit polyclonal anti-Bax, anti-p21 and anti-tubulin monoclonal antibodies (Calbiochem). Goat anti-mouse and goat anti-rabbit horse peroxidase conjugated secondary antibodies (Amersham) have been used for the expression analyses. Immunolabelled lanes have been detected using chemiluminescence analysis (Pierce).
To this end cell viability and apoptotic tests (FIG. 1B, FIG. 4 B-C) on MDA-MB468 breast carcinoma have been carried out.

[9] = test system: SKBR3 tumour lines, containing his-175 mutation; conditions: SKBR3, his-175 mutation; cited from earlier work
[10] = test system: SW480 and MDA-MB-468; conditions: cell lines containing other types of mutation (SW480, MDA-MB-468); cited from earlier work

Sequence | activity on p53 mutant categories (His-175, His-273) [1] | tumour growth (tumour size) in vivo [2] | reaction with GST-p53 fusion proteins (dot blot, anti-p53 DO1) [3] | specificity for p53 mutation type [1] | sensitivity to chemotherapeutic treatment [9] | change in apoptotic response [10] | further results
FQQSSTAASATW (SEQ ID NO1 wherein K is substituted by A) [SIMP1KO] | displays no activity on both mutant categories | tumour growth similar to non treated control | no reaction was observed | – | – | – | –
FQQSSTARSATW (SEQ ID NO1 wherein k is substituted by R) [SIMP1M] | displays the same, although increased, functions | meaningful reduction of the growth (tumour size) | – | display specificity for His-273 mutation containing tumours | – | – | cell proliferation in vitro [4]: reduce the cell proliferation in vitro; activity on tumour cell lines containing different mutation types ([1]; mutations other than His-273): has no activity on tumour cell lines containing different mutation types; Adriamycin chemosensitivity / p73 transcription response [5]: increase Adriamycin chemosensitivty; restoration of p73 transcription activity inhibited by m-p53 His273 [6]: modify mutated p53/p73 protein complex restoring p73 oncosuppressive functions; disruption of m-p53 His-273/p73 protein complex (p73 bound m-p53 amount) [7]: disrupt selectively m-p53/p73 complex; apoptotic response [8]: increase the apoptotic response to chemotherapeutic agents
GQRDFNEGQSAPA (p73 SIMP (aa 200-211) wherein Q has been inserted between G (aa200) and R (aa201)) [SIMP6] | – | – | – | – | more sensitive to chemotherapeutic treatment | do not induce changes in the apoptotic response | –
VVKRCPNHE (p73 SIMP (aa 190-198)) [SIMP5] | – | – | – | – | more sensitive to chemotherapeutic treatment | do not induce changes in the apoptotic response | –
VVKRCPNHELGRD (p73 SIMP (aa 190-202)) [SIMP5M, control peptide, reference compound] | – | tumour growth similar to non treated control | specifically reacts against his175 m-p53 | specific for His-175 mutation containing tumours | – | – | –

From US20120237614A1, “PEPTIDE ABLE TO DISRUPT THE PROTEIN COMPLEX BETWEEN THE HIS273 MUTADED P53 PROTEIN AND THE ONCOSUPPRESSIVE P73 PROTEIN IN TUMOR CELLS AND THERAPEUTIC USES THEREOF” (priority 2009, published 2012)
